Results on ten molecules are retold here after patent publication US20200131176A1, “SELECTIVE INHIBITORS OF CLINICALLY IMPORTANT MUTANTS OF THE EGFR TYROSINE KINASE” (CS Pharmatech Limited, priority 2017, published 2020).

The target of one data set is T1, IGF-1R (Homo sapiens, UniProt P08069).
T1 construct: purchased CARNA BIOSCIENCE 08-141
Kind of data set: IGF-1R inhibition assay (Caliper mobility shift). It counts as biochemical. To be noted: enzyme assay.

The target in the next data set is T2, INSR (Homo sapiens, UniProt P06213).
T2 construct: purchased CARNA BIOSCIENCE 08-142
Kind of data set: INSR inhibition assay (Caliper mobility shift). It counts as biochemical. To be noted: enzyme assay.

The subject of a further data set is A431 cells. As to the kind of experiment: A431 inhibition assay (cell proliferation, CellTiter-Glo, 72 h). It counts as cell-based, human. (Cellular ATP, detected with luciferase, serves as a proxy for viable cell number.)
For a further data set, the system named is H1975 cells. Kind of data set: H1975 inhibition assay (cell proliferation, CellTiter-Glo, 72 h). The note with it: cellular proliferation, double mutant EGFR. It counts as cell-based, human.
The target in data set [1] is T3, Exon 19 deletion EGFR (activating single mutant) in PC-9 cells (Homo sapiens, UniProt P00533, DEL746-750).
T3 construct: cellular phosphorylation of endogenous p-EGFR; host or cells: PC9 (PC-9) human lung cell line
As to the kind of experiment: Exon 19 deletion EGFR PC-9 cellular autophosphorylation assay (p-EGFR ELISA). To be noted: PC9, 2 h treatment, read-out: SM (PC9) IC50. It counts as cell-based. On the technique in general: An ELISA detects its analyte on a solid surface through an enzyme-linked reagent.
Experimental: The human lung cell line PC9 (Exon 19 deletion EGFR) were obtained from the American type Culture Collection. […] Cells were grown in a humidified incubator at 37° C. with 5% CO2, Assays to measure cellular phosphorylation of endogenous p-EGFR in cell Iysates were carried out according to the protocol described in the R&D Systems DuoSet IC Human Phospho-EGF R ELISA (R&D Systems catalogue number # DYCI095). 40 μL of cells were seeded (10000 cells/well) in growth medium in Coming black, clear-bottomed 384-well plates and incubated at 37° C. with 5% CO2 overnight. […] Plates were incubated for a further 2 h, then following aspiration of medium, 40 μL× lysis buffer is added to each well. Greiner black high bind 384 well plates were coated with capture antibody and then blocked with 3% BSA. Following removal of block, 15 μL of lysate are transferred to the Greiner black high bind 384 well plates and incubated for 2 hours. Following aspiration and washing of the plates with PBS, 20 μL of detection antibody were added and incubated for 2 hours. […] The data obtained with each compound are exported into a suitable software package (such as Origin) to perform curve fitting analysis.

Another data set relates to PC-9 cells. Kind of data set: PC-9 growth inhibition assay (cell proliferation, CellTiter-Glo, 72 h). It counts as cell-based, human. The note with it: cellular proliferation, PC9 cells, single mutant EGFR.
For data set [2], the system named is H1975 NSCLC cells xenograft (EGFR L858R/T790M double mutant). As to the kind of experiment: EGFR L858R/T790M double-mutant H1975 xenograft model. It counts as in vivo, nu/nu mice. To be noted: 5 mg/kg, day 10 after dosing.
Experimental: Appropriately transformed cells, either from ATCC cell lines, known to carry the oncogene of interest, or from deliberate transfections, are suspended in appropriate media, and 5×10^6 or 1×10^7 cells are injected into the flank of nu/nu mice. Alternatively trochar placement of fragments of in vivo passaged tumors, usually about 1 mm^3 can be used to initiate the tumors. When tumors have reached an appropriate size for the experiment, usually in the 100-300 mg range, animals are randomized into matched groups of 6-10 mice, and tumor size and given vehicle or test article by perioral gavage once or twice daily. Tumor volumes are determined using calipers. The percentage increase in the volume of a xenograft tumor on day n versus day 0 (the day when dosing of the test compound began) is calculated as (tumor volume on day n−tumor volume on day 0/tumor volume on day 0)×100. The mean percentage of tumor growth inhibition in each drug-treated group relative to the vehicle-treated group is calculated as (1−mean percent increase of tumor volume in the drug-treated group/mean percent increase of the tumor volume in the vehicle-treated group)×100. Statistical significance is evaluated using a one-tailed t test.
Tumor size was measured on day 10 after dosing.
Data set [3] deals with Wild type EGFR in A431 cells (Homo sapiens, UniProt P00533). The note with it: WT (A431) IC50 nM, cellular EGFR autophosphorylation, A431, 2 h treatment then EGF stimulation 10 min.
Data set [4] concerns the target hERG channel (HEK 293 cell line stably expressing hERG channel) (Homo sapiens, UniProt Q12809). As to the kind of experiment: cell-based.
In data set [5] the target is T4, L858R/T790M double mutant EGFR in H1975 cells (Homo sapiens, UniProt P00533, L858R/T790M).
T4 construct: endogenous in cells; host or cells: H1975 cells
As to the kind of experiment: L858R/T790M double mutant H1975 autophosphorylation inhibition assay (ELISA). To be noted: cellular EGFR autophosphorylation, H1975, 2 h treatment; read-out: DM (H1975) IC50. It counts as cell-based.

A short description of data set [6]: Mouse in vivo PK study. The note with it: mouse, plasma, male CD1 mice, 10 mg/kg PO; for half-life: read-out: T1/2 (PO) (converted).
Data set [7] is described as follows: Mouse in vivo PK study. The note with it: male CD1 mice, 1 mg/kg IV; for F: 10 mg/kg PO; for AUC / clearance / half-life: mouse, plasma; for half-life: read-out: T1/2 (IV) (converted). Here is the method: To determine the drug concentration in plasma of the compounds of the present disclosure following intravenous and oral administration in male CD 1 Mice, pharmacokinetic profile and PK parameters were obtained.
Test animals: healthy male CD1 mice (body weight 20-30 g, 18 mice, free access to food and water), provided by Sibeifu laboratory. […]
Samples collection: the healthy animals were used, weighed the bodyweight and marked at tail and cage card prior to dosing. Blood samples (0.03 mL per time point) were collected from dorsal metatarsal vein at 0.083, 0.25, 0.5, 1, 2, 4, 8, 24 h post dose for IV group and at 0.25, 0.5, 1, 2, 4, 8, 24 h post dose for PO group, the terminal time point was collected from heart (˜0.3 mL). The blood samples were put into the tube with heparin-Na coated and then put on the cold box, centrifuged at 4° C. 4000 g, 5 minutes immediately after collecting all samples per time point to get plasma. The plasma samples were stored in a freezer at −75±15° C. prior to analysis.
The drug concentration was determined by LC/MS/MS method, and the PK parameters were observed as follows.

Setting [8] is: NCI-H1975 cells, read-out: NCI-H1975 IC50 (nM) DM.
Setting [9] is: Homo sapiens, NCI-H1975, 72 h, read-out: NCI-H1975 IC50 (nM) DM.
[10] abbreviates: Homo sapiens, A-431, 72 h, cellular proliferation, wild type EGFR, read-out: A431 IC50 (nM) WT.
Setting [11] is: Homo sapiens, PC-9, 72 h, read-out: PC9 IC50 (nM) SM.

pIC50: −log10 of the molar value. Several values for one entry are separate records, joined by “and”; a condition that tells them apart may be missing. Equal values may be shown once. Where a name gives a salt, the structure may show the parent alone. Read-outs that look alike come from different tables or passages of the source.

T3 sequence (P00533 with tags, fused parts or gaps DEL746-750): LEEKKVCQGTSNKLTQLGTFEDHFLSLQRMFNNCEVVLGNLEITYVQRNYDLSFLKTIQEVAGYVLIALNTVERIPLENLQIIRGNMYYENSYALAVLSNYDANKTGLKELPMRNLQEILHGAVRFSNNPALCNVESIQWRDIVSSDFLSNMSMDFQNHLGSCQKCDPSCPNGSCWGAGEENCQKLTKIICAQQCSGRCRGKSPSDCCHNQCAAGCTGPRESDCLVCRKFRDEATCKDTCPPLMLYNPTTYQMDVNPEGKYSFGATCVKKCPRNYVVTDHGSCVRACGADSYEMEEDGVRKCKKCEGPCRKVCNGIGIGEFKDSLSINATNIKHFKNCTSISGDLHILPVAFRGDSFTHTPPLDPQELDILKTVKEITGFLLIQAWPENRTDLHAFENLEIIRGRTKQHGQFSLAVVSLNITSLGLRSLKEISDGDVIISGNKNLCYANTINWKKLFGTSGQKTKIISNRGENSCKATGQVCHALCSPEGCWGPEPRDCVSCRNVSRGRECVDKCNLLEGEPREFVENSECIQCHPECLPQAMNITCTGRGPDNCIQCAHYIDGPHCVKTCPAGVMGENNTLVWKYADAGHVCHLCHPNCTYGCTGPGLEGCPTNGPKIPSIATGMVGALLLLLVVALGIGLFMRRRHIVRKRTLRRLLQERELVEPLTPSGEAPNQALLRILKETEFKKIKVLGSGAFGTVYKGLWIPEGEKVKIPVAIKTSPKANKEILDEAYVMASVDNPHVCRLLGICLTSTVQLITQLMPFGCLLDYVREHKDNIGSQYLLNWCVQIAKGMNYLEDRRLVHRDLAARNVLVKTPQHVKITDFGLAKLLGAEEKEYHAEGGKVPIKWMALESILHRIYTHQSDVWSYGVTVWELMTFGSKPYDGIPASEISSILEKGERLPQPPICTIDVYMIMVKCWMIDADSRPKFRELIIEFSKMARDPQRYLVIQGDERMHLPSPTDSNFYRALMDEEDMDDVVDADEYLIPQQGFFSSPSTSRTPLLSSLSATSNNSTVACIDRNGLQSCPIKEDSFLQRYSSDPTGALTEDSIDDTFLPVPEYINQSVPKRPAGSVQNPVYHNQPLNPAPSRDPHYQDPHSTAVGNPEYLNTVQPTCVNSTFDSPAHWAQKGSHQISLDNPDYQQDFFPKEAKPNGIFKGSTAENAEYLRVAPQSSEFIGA
T4 sequence (P00533 25-1210 T790M/L858R): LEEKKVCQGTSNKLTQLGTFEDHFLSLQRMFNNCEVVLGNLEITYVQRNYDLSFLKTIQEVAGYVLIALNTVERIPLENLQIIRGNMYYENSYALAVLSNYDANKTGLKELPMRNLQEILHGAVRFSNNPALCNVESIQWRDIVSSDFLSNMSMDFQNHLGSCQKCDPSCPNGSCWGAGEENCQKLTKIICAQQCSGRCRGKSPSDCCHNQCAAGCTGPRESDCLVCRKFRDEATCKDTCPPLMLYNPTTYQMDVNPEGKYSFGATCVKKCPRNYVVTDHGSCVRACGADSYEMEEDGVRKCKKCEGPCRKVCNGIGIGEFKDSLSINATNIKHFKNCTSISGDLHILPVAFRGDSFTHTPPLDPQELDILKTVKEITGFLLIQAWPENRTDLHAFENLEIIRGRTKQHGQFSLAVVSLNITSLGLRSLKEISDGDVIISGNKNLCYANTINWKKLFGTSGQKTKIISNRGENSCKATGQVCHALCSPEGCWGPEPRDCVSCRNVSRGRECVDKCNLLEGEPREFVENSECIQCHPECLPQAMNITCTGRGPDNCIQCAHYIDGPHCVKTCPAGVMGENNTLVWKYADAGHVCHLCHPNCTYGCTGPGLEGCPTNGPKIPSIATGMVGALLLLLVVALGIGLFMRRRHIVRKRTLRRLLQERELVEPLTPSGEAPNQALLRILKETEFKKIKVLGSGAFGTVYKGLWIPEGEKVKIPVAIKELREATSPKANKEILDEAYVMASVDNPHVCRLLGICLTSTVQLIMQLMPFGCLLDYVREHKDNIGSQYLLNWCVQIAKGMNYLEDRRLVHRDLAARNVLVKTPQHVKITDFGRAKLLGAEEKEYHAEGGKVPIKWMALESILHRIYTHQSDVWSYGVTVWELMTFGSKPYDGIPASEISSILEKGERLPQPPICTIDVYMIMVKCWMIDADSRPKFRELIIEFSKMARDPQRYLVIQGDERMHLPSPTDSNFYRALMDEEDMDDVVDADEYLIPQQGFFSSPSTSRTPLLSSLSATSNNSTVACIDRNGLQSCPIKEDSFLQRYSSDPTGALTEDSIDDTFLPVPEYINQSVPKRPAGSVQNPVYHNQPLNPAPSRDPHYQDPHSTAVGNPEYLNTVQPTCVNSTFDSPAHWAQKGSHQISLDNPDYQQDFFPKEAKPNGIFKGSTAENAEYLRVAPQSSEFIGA
Wild type EGFR in A431 cells, sequence (P00533 25-1210): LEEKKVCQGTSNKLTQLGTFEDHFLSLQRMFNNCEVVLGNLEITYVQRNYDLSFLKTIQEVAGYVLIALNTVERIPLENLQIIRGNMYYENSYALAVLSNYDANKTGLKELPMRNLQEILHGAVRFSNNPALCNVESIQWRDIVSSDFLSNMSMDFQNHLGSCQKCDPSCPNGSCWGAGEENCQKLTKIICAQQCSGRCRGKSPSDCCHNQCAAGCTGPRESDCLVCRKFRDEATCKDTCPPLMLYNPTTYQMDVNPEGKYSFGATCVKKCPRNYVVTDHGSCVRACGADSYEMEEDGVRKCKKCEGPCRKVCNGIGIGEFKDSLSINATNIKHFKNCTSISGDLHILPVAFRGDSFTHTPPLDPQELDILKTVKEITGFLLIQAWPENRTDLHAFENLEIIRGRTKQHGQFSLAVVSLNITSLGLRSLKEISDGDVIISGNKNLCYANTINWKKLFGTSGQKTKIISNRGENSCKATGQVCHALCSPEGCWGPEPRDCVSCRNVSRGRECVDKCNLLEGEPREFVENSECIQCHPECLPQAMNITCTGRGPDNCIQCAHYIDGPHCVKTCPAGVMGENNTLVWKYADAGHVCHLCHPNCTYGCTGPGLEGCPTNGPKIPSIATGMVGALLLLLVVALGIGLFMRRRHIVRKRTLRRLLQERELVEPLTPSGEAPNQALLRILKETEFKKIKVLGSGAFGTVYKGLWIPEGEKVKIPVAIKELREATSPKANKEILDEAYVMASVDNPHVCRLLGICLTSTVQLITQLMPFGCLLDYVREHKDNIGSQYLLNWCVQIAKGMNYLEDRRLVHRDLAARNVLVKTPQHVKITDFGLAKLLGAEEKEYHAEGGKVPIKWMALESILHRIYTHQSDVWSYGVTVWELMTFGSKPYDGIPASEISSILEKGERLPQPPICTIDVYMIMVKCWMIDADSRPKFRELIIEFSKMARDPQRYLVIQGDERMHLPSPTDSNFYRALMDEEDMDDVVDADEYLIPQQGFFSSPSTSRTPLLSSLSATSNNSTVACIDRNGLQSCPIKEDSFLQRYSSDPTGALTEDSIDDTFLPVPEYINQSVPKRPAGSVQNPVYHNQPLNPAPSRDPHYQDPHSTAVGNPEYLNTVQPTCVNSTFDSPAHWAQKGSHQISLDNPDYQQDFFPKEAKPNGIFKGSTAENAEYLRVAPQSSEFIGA
hERG channel (HEK 293 cell line stably expressing hERG channel), sequence (Q12809 whole entry): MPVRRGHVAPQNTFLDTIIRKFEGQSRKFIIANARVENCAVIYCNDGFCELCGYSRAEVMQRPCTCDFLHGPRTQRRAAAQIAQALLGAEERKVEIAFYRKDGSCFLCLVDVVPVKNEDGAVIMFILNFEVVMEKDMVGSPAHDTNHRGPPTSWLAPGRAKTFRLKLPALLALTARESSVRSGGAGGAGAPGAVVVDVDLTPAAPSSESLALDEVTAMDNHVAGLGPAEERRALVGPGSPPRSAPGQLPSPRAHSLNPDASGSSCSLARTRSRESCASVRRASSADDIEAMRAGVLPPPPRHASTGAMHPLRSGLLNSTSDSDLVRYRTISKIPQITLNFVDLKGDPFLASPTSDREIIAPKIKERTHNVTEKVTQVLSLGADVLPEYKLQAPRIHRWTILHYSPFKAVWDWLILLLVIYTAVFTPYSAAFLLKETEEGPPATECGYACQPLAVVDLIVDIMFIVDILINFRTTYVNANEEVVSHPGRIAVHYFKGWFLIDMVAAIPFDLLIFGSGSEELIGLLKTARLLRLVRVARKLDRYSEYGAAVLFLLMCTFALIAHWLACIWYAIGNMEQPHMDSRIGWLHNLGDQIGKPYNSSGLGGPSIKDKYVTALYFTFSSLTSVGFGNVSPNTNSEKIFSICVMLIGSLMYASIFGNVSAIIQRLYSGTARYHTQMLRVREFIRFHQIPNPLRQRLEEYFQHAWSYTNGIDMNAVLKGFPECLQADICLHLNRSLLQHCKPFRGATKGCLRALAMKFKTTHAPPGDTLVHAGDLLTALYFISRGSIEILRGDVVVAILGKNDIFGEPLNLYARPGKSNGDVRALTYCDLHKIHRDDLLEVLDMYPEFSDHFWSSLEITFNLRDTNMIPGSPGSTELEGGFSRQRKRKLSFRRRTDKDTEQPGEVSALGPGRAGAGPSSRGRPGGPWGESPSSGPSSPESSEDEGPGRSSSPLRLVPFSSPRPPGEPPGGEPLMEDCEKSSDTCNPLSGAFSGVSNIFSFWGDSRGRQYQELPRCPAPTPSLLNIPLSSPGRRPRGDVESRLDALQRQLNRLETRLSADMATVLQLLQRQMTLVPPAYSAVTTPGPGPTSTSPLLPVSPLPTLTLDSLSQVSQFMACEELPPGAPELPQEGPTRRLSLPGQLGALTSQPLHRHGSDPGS
T1 sequence (P08069 959-1367 limits assumed): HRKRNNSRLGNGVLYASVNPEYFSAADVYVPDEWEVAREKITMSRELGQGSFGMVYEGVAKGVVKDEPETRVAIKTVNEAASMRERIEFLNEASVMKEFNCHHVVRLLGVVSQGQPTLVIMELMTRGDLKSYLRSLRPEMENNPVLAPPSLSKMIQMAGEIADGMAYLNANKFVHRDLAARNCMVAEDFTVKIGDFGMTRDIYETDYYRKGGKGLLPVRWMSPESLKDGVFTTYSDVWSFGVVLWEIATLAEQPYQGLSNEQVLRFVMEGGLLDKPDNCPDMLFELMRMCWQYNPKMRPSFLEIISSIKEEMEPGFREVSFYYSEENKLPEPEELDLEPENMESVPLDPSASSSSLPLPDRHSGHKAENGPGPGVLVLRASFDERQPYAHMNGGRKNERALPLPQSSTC
Experimental for IGF-1R: Test compound was dissolved in DMSO at 30 mM. […] 20 nL of these compounds DMSO dilutes were dispensed into a new 384-well assay plate by Echo 550. […] 15 μL of kinase assay buffer containing IGF-1R protein and substrate was transferred to assay plate and incubate at RT for 30 minutes. Kinase assay buffer supplemented with substrate peptides was employed as low control to monitor the background. 40 μM ATP was prepared in kinase assay buffer containing and 5 μL of ATP solution was added to each well to start the reaction. The assay plate was incubated at 25° C. for 180 minutes and the reaction was stopped by adding 40 μL of 0.5 M EDTA.
Phosphorylated fluorescent-tagged peptides were differentiated from non-phosphorylated peptides by separating using Caliper EZ Reader II and the detection was directly converted to conversion ratio.
Experimental for INSR: Test compound was dissolved in DMSO at 30 mM. […] 20 nL of these compounds DMSO dilutes were dispensed into a new 384-well assay plate by Echo 550. […] 15 μL of kinase assay buffer containing INSR protein and substrate was transferred to assay plate and incubate at RT for 30 minutes. Kinase assay buffer supplemented with substrate peptides was employed as low control to monitor the background. 40 μM ATP was prepared in kinase assay buffer containing and 5 μL of ATP solution was added to each well to start the reaction. The assay plate was incubated at 25° C. for 180 minutes and the reaction was stopped by adding 40 μL of 0.5 M EDTA.
The result was analyzed in the same manner as IGF-IR.

With `C=CC(=O)Nc1cc(Nc2nccc(-c3c[nH]c4ccccc34)n2)c(OC)cc1N(C)CCN(C)C` [AZD5104, reference compound], the IC50 was 102 nM at IGF-1R; 94.8 nM on INSR; 95.2 nM in the data set with A431 cells (cellular proliferation, wild type EGFR, read-out: A431 IC50 (nM) WT); 3.9 nM with H1975 cells (NCI-H1975 cells, listed as AZD-5104, read-out: NCI-H1975 IC50 (nM) DM); 2.95 nM and 3.06 nM and 4.05 nM in the data set with H1975 cells (setting [8]); 1.57 nM in the data set with PC-9 cells (listed as AZD-5104, read-out: PC9 IC50 (nM) SM). In the data set with PC-9 cells (read-out: PC9 IC50 (nM) SM), the IC50 was 1.34 nM and 2.27 nM and 1.92 nM. The pIC50 (as a rule, −log10 of the IC50, conventionally taken in molar units) in [1] is 8.39 and 8.33 and 8.25 and 8.23.

`C=CC(=O)Nc1cc(Nc2nccc(-c3cn(C)c4ccccc34)n2)c(OC)cc1N(C)CCN(C)C` [AZD9291, reference compound]: the IC50 at IGF-1R was 455 nM; at INSR, […]; in the data set on A431 cells (read-out: A431 IC50 (nM) WT, cellular proliferation, wild type EGFR), […]; in the data set with H1975 cells (setting [9]), 7.16 nM; with H1975 cells (NCI-H1975 cells, listed as AZD-9291, read-out: NCI-H1975 IC50 (nM) DM), […]; in the data set on H1975 cells (setting [8]), […]. In the data set with PC-9 cells (read-out: PC9 IC50 (nM) SM), the IC50 was determined as 7.43 nM. In addition, the “TGI (tumor growth inhibition)” value in data set [2] turned out to be 107.63%. Further, in data set [2] (average ± SEM, n = 9), the “Tumor Size” value came out at 123 ± 39 mm^3.

As for `C=CC(=O)Nc1cc(Nc2nccc(-c3cc4c(C)c[nH]c4c(C#N)n3)n2)c(OC)cc1N(C)CCN(C)C` [Example 3, N-(5-((4-(7-Cyano-3-methyl-1H-pyrrolo[2,3-c]pyridin-5-yl)pyrimidin-2-yl)amino)-2-((2-(dimethylamino)ethyl)(methyl)amino)-4-methoxyphenyl)acryl amide], the IC50 in [3] amounted to 63.1 nM; in the data set with A431 cells (setting [10]), 1380 nM; with H1975 cells (setting [9]) it was 4.38 nM; in the data set on PC-9 cells (setting [11]) it was 4.15 nM. Also, the pIC50 in data set [4] was 6.07; in data set [1], 8.29; in [5], 8.67.

On to `C=CC(=O)Nc1cc(Nc2nccc(-n3nc(OC)c4ccccc43)n2)c(OC)cc1N(C)CCN(C)C` [Example 8, N-(2-((2-(Dimethylamino)ethyl)(methyl)amino)-4-methoxy-5-((4-(3-methoxy-1H-indazol-1-yl)pyrimidin-2-yl)amino)phenyl)acrylamide], for which the IC50 in data set [3] was 327 nM and 464 nM; with A431 cells (setting [10]) it was 1800 nM; in the data set on H1975 cells (setting [9]), 11.6 nM; in the data set with PC-9 cells (setting [11]), 18.6 nM. Further, the pIC50 in data set [4] was 5.65; in [1], 7.56 and 7.53; in data set [5], 7.68 and 7.41.

As for `C=CC(=O)Nc1cc(Nc2nccc(-c3cc(C#N)cc4c3cnn4C)n2)c(OC)cc1N(C)CCN(C)C` [Example 9, N-(5-((4-(6-Cyano-1-methyl-1H-indazol-4-yl)pyrimidin-2-yl)amino)-2-((2-(dimethylamino)ethyl)(methyl)amino)-4-methoxyphenyl)acrylamide], the values for the AUC in the data set “Mouse in vivo PK study [6]” and in the data set “Mouse in vivo PK study [7]” were 719 ng·h/mL and 249 ng·h/mL, respectively. For the same molecule, the Cmax – broadly, the maximum level reached in the sampled fluid or tissue – in “Mouse in vivo PK study [6]” came out at 159 ng/mL. For the same molecule, the half-life in the data set “Mouse in vivo PK study [6]” is 3.55 h; in the data set “Mouse in vivo PK study [7]”, 0.53 h. Moreover, the IC50 in data set [3] is 140 nM; with A431 cells (setting [10]), 2200 nM; in the data set on H1975 cells (setting [9]), 3.05 nM; in the data set on PC-9 cells (setting [11]), 7.67 nM. Further, the pIC50 in data set [4] is 6.00; in [1] it was 7.96; in data set [5], 8.24. Also, the F in the data set “Mouse in vivo PK study [7]” was found to be 23.1%. In addition, the clearance (in general, a measure of how efficiently the substance is removed, as volume per time) in the data set “Mouse in vivo PK study [7]” is 67 mL/min/kg.

With `C=CC(=O)Nc1cc(Nc2nccc(-c3cnc4c(c3)c(C)cn4C)n2)c(OC)cc1N(C)CCN(C)C` [Example 11, N-(5-((4-(1,3-Dimethyl-1H-pyrrolo[2,3-b]pyridin-5-yl)pyrimidin-2-yl)amino)-2-((2-(dimethylamino)ethyl)(methyl)amino)-4-methoxyphenyl) acrylamide], in the data set “Mouse in vivo PK study [6]”, the AUC (commonly the area under the concentration-time curve, a measure of exposure) stood at 641 ng·h/mL; the peak level (Cmax) was 97 ng/mL; the half-life is 5.06 h. Besides, in data set [4], the pIC50 was 5.24. Also, in the data set with A431 cells (setting [10]), the IC50 was determined as 2530 nM. In addition, the IC50 in the data set on H1975 cells (setting [9]) amounted to 6.51 nM. Further, the IC50 in the data set with PC-9 cells (setting [11]) was 7.73 nM. In the data set “Mouse in vivo PK study [7]”, the F stood at 29.3%, the AUC was 153 ng·h/mL, the clearance came to 114 mL/min/kg and the half-life is 1.1 h.

With `C=CC(=O)Nc1cc(Nc2nccc(-c3ccc4c(c3)c(C)cn4C)n2)c(OC)cc1N(C)CCN(C)C` [Example 12, N-(5-((4-(1,3-Dimethyl-1H-indol-5-yl)pyrimidin-2-yl)amino)-2-((2-(dimethylamino)ethyl)(methyl)amino)-4-methoxyphenyl)acrylamide], the IC50 in data set [3] amounted to 63.6 nM; with A431 cells (setting [10]) it was 2430 nM; with H1975 cells (setting [9]) it was 16.8 nM; in the data set with PC-9 cells (setting [11]), 19.1 nM. In addition, the pIC50 is 5.39 in [4], 7.93 in data set [1] and 8.11 in [5].

`C=CC(=O)Nc1cc(Nc2nccc(-c3cnc4c(c3)c(Cl)cn4C)n2)c(OC)cc1N(C)CCN(C)C` [Example 13, N-(5-((4-(3-Chloro-1-methyl-1H-pyrrolo[2,3-b]pyridin-5-yl)pyrimidin-2-yl)amino)-2-((2-(dimethylamino)ethyl)(methyl)amino)-4-methoxyphenyl)acrylamide]: in “Mouse in vivo PK study [6]”, the AUC was determined as 486 ng·h/mL, the Cmax was 63.5 ng/mL and the half-life was 6.1 h. The molecule further had a pIC50 in data set [4] of 5.78. The IC50 in the data set on H1975 cells (setting [9]) stood at 2.98 nM. Moreover, the IC50 in the data set on PC-9 cells (setting [11]) is 4.64 nM. Further, in the data set “Mouse in vivo PK study [7]”, the F was found to be 17.3%, the AUC was determined as 169 ng·h/mL, the clearance was determined as 99 mL/min/kg and the half-life was 1.52 h.

`C=CC(=O)Nc1cc(Nc2nccc(-n3nc(NCC)c4ncccc43)n2)c(OC(F)F)cc1N(C)CCN(C)C` [Example 20, N-(4-(Difluoromethoxy)-2-((2-(dimethylamino)ethyl)(methyl)amino)-5-((4-(3-(ethylamino)-1H-pyrazolo[4,3-b]pyridin-1-yl)pyrimidin-2-yl)amino)phenyl)acrylamide]: the IC50 in data set [3] is 19 nM; in the data set with A431 cells (setting [10]), 97.6 nM; in the data set on H1975 cells (setting [9]), 1.08 nM; in the data set with PC-9 cells (setting [11]), 0.91 nM. Besides, the pIC50 is 6.30 in data set [4], 8.86 in [1] and 8.97 in [5].

Turning to `[2H]C([2H])([2H])N(CCN(C)c1cc(OC)c(Nc2nccc(-c3cc(C#N)c4c(c3)c(C)cn4C)n2)cc1NC(=O)C=C)C([2H])([2H])[2H]` [Example 27, N-(2-((2-(Bis(methyl-d3)amino)ethyl)(methyl)amino)-5-((4-(7-cyano-1,3-dimethyl-1H-indol-5-yl)pyrimidin-2-yl)amino)-4-methoxyphenyl)acrylamide mesylate], in “Mouse in vivo PK study [6]”, the AUC was determined as 1040 ng·h/mL, the Cmax worked out at 99 ng/mL and the half-life was 3.65 h. In addition, the IC50 in the data set with H1975 cells (setting [9]) was found to be 2.26 nM. In addition, in the data set “Mouse in vivo PK study [7]”, the F stood at 31.4%, the AUC came out at 297 ng·h/mL, the clearance is 60.7 mL/min/kg and the half-life was 1.76 h.
